Source: US7737158B2, “Processes for regulating blood glucose in a mammal” (Washington University, priority 2005, dated 2010)
Entries after “also recorded” stand apart in the source; their conditions may differ.

Key:
C57BL/6 mice = assay: Blood glucose levels after intraperitoneal injection in fasted C57BL/6 mice; type: in vivo, mouse; details: for effect on blood glucose levels at lower dose: 50 mg/kg intraperitoneal, compared with 500 mg/kg; for blood glucose levels: 4-hr fast, 0-120 min after injection
Description: In this Example, five adult mice (C57BL/6; male; 3-4 months of age) were subjected to a 4-hr fast followed by intraperitoneal injection (500 mg/kg; 50 mg/kg) of nicotinamide, nicotinamide mononucleotide (NMN), or nicotinamide adenine dinucleotide (NAD). A control group of five fasted mice ([…]) were injected with PBS.
Blood glucose levels were measured from tail vein blood samples with an Accu-Chek glucometer (Roche Diagnostics) at 0, 15, 30, 60 and 120 min after injection.

Nampt^+/− mice = assay: Intraperitoneal glucose tolerance test (IPGTT) after NMN administration in Nampt+/- mice; type: in vivo, mouse
Description: Intraperitoneal glucose tolerance tests (IPGTTs) were conducted with a does of 3 g dextrose/kg body weight on Nampt^+/− and Nampt^+/+ siblings. For the IPGTTs, after mice were injected with PBS or NMN (500 mg/kg body weight) and fasted for 12-14 hours, dextrose (3 g/kg body weight) was injected intraperitoneally, and blood glucose levels were measured at 0, 15, 30, 60, and 120 min after injection. Plasma was also collected at 0 and 30 min time points after glucose injection and submitted for insulin measurements to the Washington University RIA Core facility. For the ITTs, after female mice were fasted for 4 hours, human insulin (0.75 U/kg body weight) (Lilly) was injected intraperitoneally to these mice, and blood glucose levels were measured at 0, 15, 30, 45, and 60min after insulin injection.
If the NAD biosynthetic activity of Nampt is responsible for the phenotypes observed in Nampt^+/− mice, the administration of NMN, a product of the Nampt enzymatic reaction, should be able to correct their problems. To test this possibility, the same Nampt^+/− mice that were used for IPGTTs were injected with NMN at a dose of 500 mg/kg body weight intraperitoneally ˜14 hrs prior to IPGTTs. As a control, PBS was injected to the mice ˜14 hrs before conducting previous IPGTTs. […] Blood glucose levels were monitored with a glucometer at 0, 30, and 60 min time points after injection.

B6 mice = assay: Toxicity of NMN dose in B6 mice; type: in vivo, mouse; details: NMN 500 mg/kg body weight
Source text: Therefore, it will be of great interest to examine whether NMN administration also alleviates the effects of Nampt haplodeficiency in HFD-fed Nampt^+/− mice and even improves the symptoms in HFD-fed Nampt^+/+ mice. […] NMN administration causes an acute increase in blood glucose within 2 hrs, probably due to the rapid release of calcium and eicosanoid in the liver (Broetto-Biazon et al., Eur. J. Pharmacol., (2004) 484, 291-301). Therefore, physiological tests will be conducted ˜14 hrs after NMN injection, as described in Example 18.

HIB-1B adipocytes = assay: Secretion assay with brefeldin A in differentiated HIB-1B adipocytes (Western blot); type: cell-based, mouse; details: BFA 0.5 ug/ml, 12 hours, differentiated HIB-1B adipocytes (day 8)
Description: HIB-1B cells expressing Nampt-FLAG, Dhfr-FLAG, and Ppl-FLAG were differentiated to mature adipocytes (day 8) in 10-cm dishes, and their cell extracts were collected and immunoprecipitated as described above. Culture supernatant (˜8 ml) were collected and immunoprecipitated overnight at 4° C. with anti-FLAG antibody-conjugated beads, washed twice with PBS, and analyzed by Western Blot with rabbit polyclonal anti-FLAG antibody (Sigma, MO).
Brefeldin A (BFA), a potent inhibitor of the classical secretory pathway, was added to examine if Nampt-FLAG® is secreted through the ER-Golgi system. Fully differentiated HIB-1B adipocytes (day 8) were treated with BFA (0.5 ug/ml, Sigma, MO) for 12 hours, and cell extracts and culture supernatants were collected and analyzed as described above.

[1] = system: Chinese hamster ovary (CHO) cells; assay: Secretion assay with brefeldin A in transfected CHO cells (Western blot); type: cell-based; details: BFA-treated transfected CHO cells
Description: Cell extracts and culture supernatants were collected 48 hours after transfection, and subjected to immunoprecipitation with anti-FLAG® antibody-conjugated beads as described above, and analyzed by Western Blot with rabbit polyclonal anti-FLAG® antibody (Sigma, MO). Cells were also treated with BFA as described above.

NIH3T3 cells = assay: Total cellular NAD levels in NIH3T3 cells by HPLC; type: cell-based, mouse; details: addition of 5 mM nicotinamide to the medium (otherwise 33 μM)
Description: Total cellular levels of NAD was measured in the NIH3T3 cell lines overexpressing the untagged enzymes. High performance liquid chromatography was used to measure NAD (Neubert et al., Biochim. Biophys. Acta., (1964) 92, 610-612; Emanuelli et al., J. Chromatogr., (1996) B. 676, 13-18). Briefly, 5×10^5 cells were plated in 6 cm dishes and harvested 48 h later in 800 μl of ice-cold PBS. Cells were then spun down and lysed with 300 μl of 1M HClO4 on ice for 10 min. Lysates were cleared by centrifugating at 4° C. at 18,000 g for 5 minutes. Cleared lysates (240 μl) were neutralized by adding 80 μl of 3M K2CO3 and incubating on ice for 10 minutes. After centrifuging for 10 min, 100 μl of the supernatant were mixed with 400 μl of Buffer A and loaded onto the column. The HPLC was run at a flow rate of 1 ml/min with 100% Buffer A from 0 to 5 min, a linear gradient to 95% Buffer A and 5% Buffer B (100% methanol) from 5 to 6 min, 95% Buffer A and 5% Buffer B from 6 to 11 min, a linear gradient to 85% Buffer A and 15% Buffer B from 11 to 13 min, 85% Buffer A and 15% Buffer B from 13 to 23 min, and a linear gradient to 100% Buffer A from 23 to 24 min. NAD was eluted as a sharp peak at 22 min. The amount of NAD was quantitated based on the peak area compared to a standard curve.

[2] = system: mouse mammary carcinoma model; details: eight intraperitoneal injections, 25 mg/kg per injection, 12-hour interval; Muruganandham et al. 2005; cited from earlier work

SMILES: NC(=O)c1ccc[n+]([C@@H]2O[C@H](COP(=O)([O-])OP(=O)(O)OC[C@H]3O[C@@H](n4cnc5c(N)ncnc54)[C@H](O)[C@@H]3O)[C@@H](O)[C@H]2O)c1 [NAD, Nicotinamide adenine dinucleotide]
- effect on blood glucose levels at lower dose (C57BL/6 mice): weaker
- blood glucose levels (C57BL/6 mice; 500 mg/kg intraperitoneal): significantly increased
- kinetics of glucose increase (C57BL/6 mice; 500 mg/kg intraperitoneal, comparison between compounds): much more pronounced and long-lasting effect

SMILES: NC(=O)c1ccc[n+]([C@@H]2O[C@H](COP(=O)([O-])O)[C@@H](O)[C@H]2O)c1 [NMN, Nicotinamide mononucleotide]
- effect on blood glucose levels at lower dose (C57BL/6 mice): weaker
- blood glucose levels (C57BL/6 mice; 500 mg/kg intraperitoneal): significantly increased
- time within which the acute increase in blood glucose occurs after administration (C57BL/6 mice; NMN administration): ≤ 2 h
- glucose tolerance in IPGTT (Nampt^+/− mice; NMN 500 mg/kg intraperitoneally ~14 hrs prior to IPGTT, Nampt+/- mice compared to Nampt+/+): no longer showed impaired glucose tolerance; also recorded: corrected impaired glucose tolerance; also recorded: can correct
- glucose-stimulated insulin secretion (plasma insulin) in IPGTT (Nampt^+/− mice; NMN 500 mg/kg intraperitoneally ~14 hrs prior, 30 min after glucose injection, Nampt+/- mice): robust insulin secretion similar to that in Nampt^+/+ mice; also recorded: corrected
- toxicity (B6 mice): not cause any obvious toxicity

SMILES: C[C@H]1CCC/C=C/[C@@H]2C[C@H](O)C[C@H]2[C@H](O)/C=C/C(=O)O1 [BFA, Brefeldin A]
- eNampt levels in supernatant (extracellular Nampt secretion) (HIB-1B adipocytes): not affected; also recorded: not inhibited
- secretion of Prl-FLAG (HIB-1B adipocytes): significantly inhibited
- secretion of Prl-FLAG (HIB-1B adipocytes; listed as brefeldin A): inhibited
- secretion of Prl-FLAG [1]: significantly inhibited
- secretion of extracellular Nampt [1]: unaffected

SMILES: NC(=O)c1cccnc1 [nicotinamide, 3-pyridinecarboxamide]
- total cellular NAD level (NIH3T3 cells): did not increase NAD
- effect on blood glucose levels at lower dose (C57BL/6 mice): weaker
- blood glucose levels (C57BL/6 mice; 500 mg/kg intraperitoneal): significantly increased

SMILES: O=C(/C=C/c1cccnc1)NCCCCC1CCN(C(=O)c2ccccc2)CC1 [FK866]
- inhibition of NAD biosynthesis in vivo [2]: effective to inhibit NAD biosynthesis
- toxicity [2]: without any obvious toxicity
